Patent publication US5444042A, “Method of treatment of neurodegeneration with calpain inhibitors” (Cortex Pharmaceuticals, priority 1994, dated 1995)
“Also recorded” adds a separate entry of the source. Where two headings read alike, the source gives them in different places. Where a SMILES comes first, the peptide text is derived from it. The star is where a group is joined. Boc = CC(C)(C)OC(=O)*; CH2Cl = ClC*

Key:
[1] = test system: Calpain within platelets; assay: Platelet membrane permeation assay, spectrin proteolysis (Examples 4A, 4B); format: cell-based, rat; conditions: for inhibition of Calpain within platelets: 100 μM, A23187 1 μM; for IC50: concentration at which 50% of the Calpain activation present in controls occurred
Outline: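 Rat (Sprague-Dawley) platelets at 10^7 cells/ml in HEPES buffer pH 7.4, preincubated 5 min with inhibitor, then 5 min with 1 μM A23187 to activate calpain. Spectrin proteolysis assessed by SDS-PAGE and anti-spectrin immunoblot, quantified by densitometry.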

[2] = test system: Calpain in crude brain extracts; assay: Ca2+-stimulated spectrin proteolysis in crude brain extracts (Example 2); format: biochemical; conditions: for inhibition of spectrin proteolysis in crude brain extracts: 100 μM
Outline: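 Brain tissue was homogenized in 10 mM Tris pH 7.4, 0.32 M sucrose, 1 mM EGTA and 1 mM DTT, and nuclei and debris were removed. Calpain activity was scored as Ca^2+-stimulated proteolysis of endogenous spectrin.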

[3] = target: T1, calpain II from rabbit muscle (Oryctolagus cuniculus, UniProt P06814); assay: Calpain II Ki (Table 1B(i)); format: biochemical
T1 sequence (P06814 1-422): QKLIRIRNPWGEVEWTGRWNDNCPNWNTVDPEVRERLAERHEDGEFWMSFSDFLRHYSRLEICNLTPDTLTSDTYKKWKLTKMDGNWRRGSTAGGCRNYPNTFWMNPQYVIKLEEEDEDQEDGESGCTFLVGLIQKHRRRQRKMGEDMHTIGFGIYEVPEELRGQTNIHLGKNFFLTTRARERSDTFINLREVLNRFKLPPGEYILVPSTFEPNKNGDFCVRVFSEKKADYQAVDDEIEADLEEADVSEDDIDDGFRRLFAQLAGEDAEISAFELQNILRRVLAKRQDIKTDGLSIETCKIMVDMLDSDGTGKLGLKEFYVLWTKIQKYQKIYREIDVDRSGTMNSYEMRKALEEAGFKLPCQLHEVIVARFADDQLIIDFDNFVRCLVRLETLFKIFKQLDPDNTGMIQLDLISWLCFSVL
T1 sequence (P06813 1-266 partner): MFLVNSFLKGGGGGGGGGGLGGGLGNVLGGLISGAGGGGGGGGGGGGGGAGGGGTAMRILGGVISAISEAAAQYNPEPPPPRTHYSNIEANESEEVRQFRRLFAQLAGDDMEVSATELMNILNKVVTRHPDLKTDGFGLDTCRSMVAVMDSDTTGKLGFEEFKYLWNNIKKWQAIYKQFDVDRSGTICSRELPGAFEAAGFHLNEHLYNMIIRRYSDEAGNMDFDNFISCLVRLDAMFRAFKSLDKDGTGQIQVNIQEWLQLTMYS
Description: The Peptide Keto-Compounds are reversible inhibitors of Calpains and other thiol proteases. […] Cathepsin B from bovine spleen was assayed using Z-[…]-nitrophenylphosphate as substrate. […] The Ki value for the inhibition of Calpains and cathepsin B by several Peptide Keto-Compounds are shown in μM (micromolar). The values for leupeptin, which is commercially available from Calbiochem of La Jolla, Calif., are shown for comparison.

[4] = Suc-Leu-Tyr-amidomethylcoumarin, HEPES pH 7.2, read-out: Ki Calpain II

Row | SMILES | inhibition of Calpain within platelets [1] | inhibition of spectrin proteolysis in crude brain extracts [2] | Ki [3, 4] [µM] | IC50 [1] [µM] | Ki [3] [µM] | effect on intracellular (platelet) Calpain ([1]; concentration not given) | inhibition in the system of Example 2 ([2]; concentration not given)
1 | N=C(N)SCCCOc1oc(=O)c2ccccc2c1Cl [CiTprOIC, 4-chloro-3-(3-isothiureidopropoxy)isocoumarin] | significant inhibition | significant inhibition |  |  |  |  | 
2 | CCCC(NC(=O)[C@H](CC(C)C)NC(=O)OCc1ccccc1)C(=O)C(=O)OCC (mixture of isomers) [Z-Leu-Nva-COOEt, Z-Leu-DL-Nva-COOEt] | significant inhibition | significant inhibition | 1.2 | 40 |  |  | 
3 | CCCCC(NC(=O)C(CC(C)C)NC(=O)OCc1ccccc1)C(=O)C(=O)OCC (stereo not drawn) [Z-Leu-Nle-COOEt, Z-Leu-NLeu-CO2 Et] | significant inhibition | significant inhibition | 0.18 | 20 |  |  | 
4 | N=C(N)SCCCOc1oc(=O)c2cc(N)ccc2c1Cl [NH2 -CiTPrOIC (ACITIC), 7-amino-4-chloro-3-(3-isothiureidopropoxy)isocoumarin] | significant inhibition | significant inhibition |  |  |  |  | 
5 | CCOC(=O)C(=O)C(CC)NC(=O)[C@H](C)NC(=O)[C@H](C)NC(=O)OCc1ccccc1 (mixture of isomers) [Z-Ala-Ala-DL-Abu-COOEt, Z-Ala-Ala-DL-Abu-CO2 Et] | significant inhibition | significant inhibition | 200 |  |  |  | 
6 | CC(=O)N[C@@H](CC(C)C)C(=O)N[C@@H](CC(C)C)C(=O)N[C@H](C=O)CCCNC(=N)N [Leupeptin, Ac-Leu-Leu-Arg-H, reference compound] |  |  |  |  | 0.43 | little effect; also recorded: failed to exhibit Calpain inhibitory activity | showed inhibition
7 | CCOC(=O)C(=O)[C@H](CC)NC(=O)[C@H](CC(C)C)NC(=O)OCc1ccccc1 (racemic) [Z-Leu-Abu-COOEt, Z-Leu-DL-Abu-COOEt] | significant inhibition | significant inhibition | 0.4 | 42 |  |  | 
8 | CC(C)CC(NC(=O)CNC(=O)OC(C)(C)C)C(=O)NC(Cc1ccccc1)C(=O)CCl (stereo not drawn) [Boc-Gly-Leu-Phe-CH2 Cl] (Boc-Gly-Leu-Phe-CH2Cl; configuration not given here) | significant inhibition | significant inhibition |  |  |  |  | 
9 | CCOC(=O)C(=O)C(Cc1ccccc1)NC(=O)C(CC(C)C)NC(=O)OCc1ccccc1 (stereo not drawn) [Z-Leu-Phe-COOEt] | significant inhibition | significant inhibition | 0.4 | 42 |  |  | 
10 | CCC(NC(=O)[C@@H]1CCCN1C(=O)[C@H](C)NC(=O)[C@H](C)NC(=O)CCC(=O)OC)C(=O)C(=O)OC (mixture of isomers) [MeO-Suc-Ala-Ala-Pro-Abu-COOMe, MeO-Suc-Ala-Ala-Pro-DL-Abu-CO2 Me] | significant inhibition | significant inhibition |  |  |  |  | 
